From ChEMBL document CHEMBL1157539, “Thousands of chemical starting points for antimalarial lead identification” (Nature, 2010)

Test system: Plasmodium falciparum
Test: GSK_TCMDC: Inhibition of Plasmodium falciparum 3D7 in whole erythrocytes, using parasite LDH activity as an index of growth.
Type: functional, organism-based
Conditions: Plasmodium falciparum, 3D7

| Structure (SMILES) | XC50 [nM] |
| --- | --- |
| Fc1cccc(Nc2nc(NCc3ccc4ccsc4c3)nc(Nc3cccc(F)c3)n2)c1 | 1080 |
| FC(F)(F)c1ccc(NC(=S)N2CCC(CCN3CCC(c4c[nH]c5ccccc45)CC3)CC2)cc1 | 885 |
| O=[N+]([O-])c1ccc(C(O)CNCCc2ccccc2)cc1OCc1ccccc1 (stereo not given) | 912 |
| COc1ccccc1CCCON1C(=N)N=C(N)NC1(C)C | 3.2 |
| Brc1cc2c(cc1C=NNc1nc(=Nc3ccccc3)[nH]c(=Nc3ccccc3)[nH]1)OCO2 | 798 |
| O=C(O)CCSSc1cccc[n+]1[O-] | 808 |
| COc1ccc(Cc2cnc3nc(N)nc(N)c3c2C)cc1 | 29.1 |
| Cc1cc2[nH]c(-c3ccc(C(=O)NCCCN4CCN(c5cccc(Cl)c5)CC4)s3)nc2cc1Cl | 653 |
| Cn1cncc1C(=O)NC1CCN(c2ccnc(Nc3ccc(F)cc3)n2)C1 (stereo not given) | 832 |
| Oc1ccc(-c2ccccc2)cc1CNC1CCCCC1 | 497 |
| Cc1ccc(NC(=O)c2cnc(N3CCN(c4ccncc4)CC3)c(Cl)c2)cc1 | 965 |
| Cc1cccc2nc(-c3ccc(-c4ccc(CNCCNC(=O)c5ccnn5C)cc4)cc3)[nH]c12 | 480 |
| O=C(Nc1cccc(-c2cccc(-c3nc4cc(C(F)(F)F)ccc4[nH]3)c2)c1)Nc1ccc(F)c(F)c1F | 119 |
| CCCCCCN1CCCN(Cc2ccc(C(=O)Nc3ccc(CCC)cc3)cc2)CC1 | 661 |
| O=C(NC1CCN(CC2(c3ccc(Cl)cc3)CCC2)CC1)c1cc[nH]n1 | 421 |
| CNS(=O)(=O)CCNCc1ccc(-c2ccc3ncnc(Nc4ccc(OCc5ccccc5)cc4)c3c2)o1 | 729 |
| CCCCCCCCc1c(C)nc(C)c(Br)c1O | 824 |
| NC1CCN(CCNCc2cccc(-c3ccc(-c4nc5cc(F)ccc5[nH]4)cc3)c2)C1 (stereo not given) | 734 |
| O=C(Nc1ccc(-c2nc3ccccc3[nH]2)cc1)c1ccc(S(=O)(=O)N2CCc3ccccc32)cc1 | 741 |
| CC(C)CNCc1ccc(-c2ccc(CN(CCCN3CCN(C)CC3)C(=O)CCC3CCCC3)cc2)cc1 | 1060 |
| Cc1cc(OCC(=O)Nc2ccc(-c3nc4ccccc4[nH]3)cc2)cc(C)c1Cl | 742 |
| O=C(C1CCCC1)N1CCOC(CCN2CCC(c3ccccc3)CC2)(c2ccc(Cl)c(Cl)c2)C1 (stereo not given) | 937 |
| c1cc(CNCC2CCN(CC3CCCCC3)CC2)cc(-n2ccnc2)c1 | 545 |
| CC(=O)Nc1ccc(C(=O)Nc2cccc(-c3ccc(-c4nc5cccc(C)c5[nH]4)cc3)c2)cn1 | 191 |
| O=C(Nc1cccc(-c2ccc(-c3nc4ccccc4[nH]3)cc2)c1)Nc1ccc(F)c(F)c1F | 238 |

| Structure (SMILES) | XC50 [nM] |
| --- | --- |
| Cn1nccc1C(=O)NCCNCc1ccc(-c2cccc(-c3nc4cc(F)ccc4[nH]3)c2)cc1 | 218 |
| O=C(/C=C/c1ccc(Cl)c(Cl)c1)NCCCCCN1CCC(NC(=O)Nc2ccc(Oc3ccccc3)cc2)C1 (stereo not given) | 594 |
| CCOc1ccc(Nc2nc(N)c3ccccc3n2)cc1 | 1150 |
| CC(=O)Nc1ccc(CN2CCC(NC(=O)c3cc(-c4ccc(N(C)C)cc4)cs3)C2)cc1 (stereo not given) | 1170 |
| Cc1cc(NCC(c2ccccc2)c2ccccc2)nc(NCc2ccc(C(F)(F)F)cc2)n1 | 246 |
| O=C(Nc1cccc(CN2CCCN(Cc3ccc(O)cc3)CC2)c1)c1cccc(F)c1 | 896 |
| O=C(O[C@H]1CN[C@H](C#Cc2cc3ncnc(Nc4ccc5c(ccn5S(=O)(=O)c5cccs5)c4)c3s2)C1)N1CCOCC1 | 1100 |
| CCc1cn2c3c(cc(C(=O)N[C@@H](Cc4ccccc4)[C@H](O)CNC4CCOCC4)cc13)N(C)S(=O)(=O)C2 | 87.7 |
| C=CCNc1cc(-c2ccccn2)nc(-c2ccccn2)n1 | 472 |
| CCOc1ccc2nc3cc(NC(=O)c4ccco4)ccc3c(N)c2c1 | 802 |
| N#Cc1cccc(NC(=O)Nc2ccc3c(c2)CCN(C2CCC2)CC3)c1 | 843 |
| COC(=O)C(C)(C)c1ccc(CC(C)NCC(O)c2cccc(C(F)(F)F)c2)cc1 (stereo not given) | 837 |
| COc1ccc2c(c1)CCCC2NCCCCNC(=O)c1ccc(NC(=O)c2ccc(Cl)cc2)cc1 (stereo not given) | 381 |
| COc1cc(Cc2cnc(N)nc2N)cc(OC(C)C)c1OC | 1040 |
| COc1cc(NC(=O)N2CCc3ccc(OCCN(C(C)C)C(C)C)cc32)cc(C(F)(F)F)c1 | 186 |
| Oc1ccc(CCNc2nc(NCCCOc3cc(CN4CCCCC4)ccc3F)nc(N3CCNCC3)n2)cc1 | 1760 |
| CN(C)c1nc2cc(-n3cnc4cc(-c5ccc(Cl)cc5)sc4c3=O)ccc2n1CCCN1CCCCC1 | 845 |
| Cc1cccc2nc(-c3cccc(-c4ccc(CNCCCN5CCCC5=O)cc4)c3)[nH]c12 | 956 |
| CCN1C(c2ccc(Cl)cc2)C(CNCc2ccccc2O)CC1(C)CO (stereo not given) | 311 |
| CC(=O)c1c[nH]c2ccc(/C=C/C(=O)NC3CCC(CCN4CCc5ccc(C#N)cc5CC4)CC3)cc12 (stereo not given) | 496 |
| Cc1cc(O)c(CN(C)Cc2ccc3c(c2)OCCO3)cc1C(C)C | 672 |
| COc1ccc2nccc([C@@H](O)CN3CCC(NC(=O)COc4nc(SCc5ccc(F)cc5)nc5c4CCC5)CC3)c2c1 | 595 |
| Cn1nccc1C(=O)NCCNCc1ccc(-c2cccc(-c3nc4ccccc4[nH]3)c2)cc1 | 137 |
| CC1(C)NC(N)=NC(=N)N1OCCCCCCOc1ccc(Cl)c2ccccc12 | 3.2 |
| CCN(CCN(C)C)Cc1ccc(-c2ccc(NS(=O)(=O)c3cccc4cccnc34)cc2)cc1 | 931 |

| Structure (SMILES) | XC50 [nM] |
| --- | --- |
| CCOc1cc(CC)ccc1C1CCN(CCN2CCC(NC(=O)c3ccc(-c4ccc(C#N)cc4)cc3)CC2)CC1 | 610 |
| COc1ccc(NC(=O)CCNc2cc(C)nc(NCCc3ccccc3)n2)cc1 | 1160 |
| CN(C)c1cc(NN=Cc2cc(Cl)ccc2O)nc(N(C)C)n1 | 703 |
| Fc1cccc(COc2ccc(-n3ccc4c(NCCCn5ccnc5)ncnc43)cc2Cl)n1 | 1030 |
| O=[N+]([O-])c1cccc(CNCC2CCN(CC3CCCCC3)CC2)c1 | 1290 |
| Cc1cc(N[C@@H](Cc2ccccc2)C(=O)NCc2cccc(F)c2)nc(NCCc2cccs2)n1 | 622 |
| CC(Cc1ccc(OCCN2CCN(c3cccc(Cl)c3)CC2)cc1)NCC(O)c1cccc(Cl)c1 (stereo not given) | 1210 |
| O=C(Nc1cccc(-c2ccc(-c3nc4cc(C(F)(F)F)ccc4[nH]3)s2)c1)c1cccnc1 | 363 |
| Cc1ccc(S(=O)(=O)N2CCCN(C(=O)c3cc(-c4ccccc4)[nH]n3)CC2)cc1 | 84.3 |
| O=C(/C=C/c1ccc(Cl)cc1)NCCCCCN1CCCC(C(=O)Nc2ccc(Cl)c(Cl)c2)C1 (stereo not given) | 833 |
| c1ccc2c(c1)CN(CC1CC1)CC1(CCN(Cc3c[nH]c4cnccc34)CC1)O2 | 900 |
| Cc1cc(F)ccc1C1CCN(CCCCNC(=O)c2ccc(NC(=O)c3ccc(Cl)cc3)cc2)CC1 | 692 |
| O=C(Nc1ccccc1O)c1ccc(S(=O)(=O)c2ccc(Cl)cc2)cc1 | 1350 |
| NC1=NC2(CCCCC2)N(OCCCCCCCCNc2nc(N)nc(N)n2)C(N)=N1 | 59.8 |
| CC1(C)NC(N)=NC(=N)N1OCCCOc1ccc([N+](=O)[O-])cc1 | 3.2 |
| CCCCCCN1CCC(NCc2ccc(Cl)cc2)CC1 | 854 |
| NC(=O)c1ccccc1OCC(=O)Nc1ccc(-c2cccc(-c3nc4cc(C(F)(F)F)ccc4[nH]3)c2)cc1 | 978 |
| CCOC(=O)CCCc1cc(NC2CCN(C)CC2)nc(Nc2ccc(C)cc2)n1 | 263 |
| CC1CC(C)CN(CC(O)CNC(=O)Nc2ccc(Br)cc2)C1 (stereo not given) | 1050 |
| CN(C(=O)Nc1ccc(F)cc1)C1CCN(CCCCCNC(=O)/C=C/c2ccc(Cl)c(Cl)c2)CC1 | 886 |
| Cc1cc(N2CCCN(C)CC2)nc(Nc2ccc(Cl)cc2)n1 | 795 |
| CC(C)(C)NS(=O)(=O)c1cc(C(=O)N2CCC(CCN3CCC(C(=O)c4ccc(F)cc4)CC3)(c3cccc(F)c3)CC2)c(Cl)cc1F | 746 |
| O=C(Nc1nc2ccc(Cl)cc2s1)c1csnn1 | 786 |
| COCCNCc1ncsc1-c1ccc2c(Nc3ccc(Oc4ccccc4)cc3)ccnc2c1 | 905 |
| CCOc1ccc(S(=O)(=O)N(C)c2ccc(OCC(=O)Nc3nccs3)cc2)cc1 | 961 |

| Structure (SMILES) | XC50 [nM] |
| --- | --- |
| COc1ccc2nccc([C@@H](O)CN3CCC(NC(=O)[C@@H]4Cc5ccccc5CN4C(=O)OC(C)(C)C)CC3)c2c1 | 892 |
| Cc1cccc2nc(-c3ccc(-c4cccc(NC(=O)C(C)CN(C)C)c4)cc3)[nH]c12 (stereo not given) | 652 |
| Fc1ccc2[nH]c(-c3cccc(-c4cccc(CNCC5CCCO5)c4)c3)nc2c1 (stereo not given) | 513 |
| COc1ccc2nccc(NC(=O)OC3CCC(NCc4ccc5c(n4)NC(=O)CS5)CC3)c2c1 (stereo not given) | 924 |
| CC[C@H](C)CNC(=O)c1ccnc(-c2cccc(CN3CCC(N4CCCC4)CC3)c2)c1 | 851 |
| C=CCc1cc(C)ccc1OCCCON1C(N)=NC(N)=NC1(C)C | 3.2 |
| CC(C)NCc1cccc(-c2cccc(-c3nc4ccccc4[nH]3)c2)c1 | 799 |
| CC(C)c1ccc(C(NC(=O)C2CCCCC2)c2ccc3cccnc3c2O)cc1 (stereo not given) | 603 |
| CN1CCN(CCCSc2ccc3c(c2)ncn3-c2cc(OCc3ccccc3C(F)(F)F)c(C(N)=O)s2)CC1 | 439 |
| CCc1cc2c(=O)c(-c3nc(C)cs3)c(N)oc2c(CN2CCCCC2)c1O | 658 |
| COc1ccc(C=Cc2cc(=N)c3ccccc3[nH]2)cc1 | 969 |
| NCC1CCCN1Cc1cccc(-c2cccc(-c3nc4cc(F)ccc4[nH]3)c2)c1 (stereo not given) | 813 |
| CCc1ccc(CN2CCC(CN(C(=O)c3ccccc3)c3ccc(Cl)cc3)CC2)cc1 | 991 |
| COc1cc2nc(Nc3ccc4c(cnn4Cc4ccccc4)c3)nc(Nc3ccc4c(cnn4Cc4ccccc4)c3)c2cc1OC | 194 |
| CN1CCC(Oc2ccc(CN3CC[C@H](NC(=O)c4ccc(Cl)c(F)c4)C3)c3ccccc23)C1 (stereo not given in full) | 738 |
| COc1ccc2nccc([C@@H](O)CN3CCC(NCc4cn5cc(F)ccc5n4)CC3)c2c1 | 784 |
| COc1ccc(CN2CCC(CNCCc3c(Cl)cccc3Cl)CC2)cc1 | 435 |
| CC(=O)N1N=C(c2ccc(F)cc2)Sc2c1nc(C1CCCCC1)n2C(C)=O | 891 |
| Cc1noc(C)c1-c1cccc(CNCc2cccc(-c3ccc(-c4nc5ccccc5[nH]4)s3)c2)c1 | 204 |
| O=C(C1COc2ccccc2O1)N(CCCn1ccnc1)Cc1csc(-c2ccc(CNCc3ccccc3)cc2)n1 (stereo not given) | 619 |
| CCCN1CCN(CC(O)CNC(=O)Nc2ccc(Br)cc2)CC1 (stereo not given) | 63 |
| CN(C)CCNc1ncnc2c1[nH]c1ccc(Cl)cc12 | 601 |
| COCCn1c(-c2nc(-c3ccc(F)cc3)cnc2N)nc2ccccc21 | 872 |
| Cc1cc2cc(-c3ccc(CN)cc3)ccc2nc1N | 1130 |
| CCc1cc2c(Sc3nnc(N)s3)ncnc2s1 | 659 |
